From patent US20140024527A1, “HERBICIDAL PYRAZINONES” (E I DU DE NEMOURS AND COMPANY, priority 2011, published 2014)

Tests used:
Format in all cases: in vivo
[1] = system: barnyardgrass (Echinochloa crus-galli); experiment: Test A postemergence; conditions: 0 to 100 scale, 0 no effect, 100 complete control, approx. 10 days
From the text: (§1) Seeds of barnyardgrass (Echinochloa crus-galli), large crabgrass (Digitaria sanguinalis), giant foxtail (Setaria faberii), morningglory (Ipomoea spp.), pigweed (Amaranthus retroflexus), velvetleaf (Abutilon theophrasti), wheat (Triticum aestivum) and corn (Zea mays) were planted into a blend of loam soil and sand and treated preemergence with a directed soil spray using test chemicals formulated in a non-phytotoxic solvent mixture which included a surfactant. At the same time these species were also treated with postemergence applications of test compounds formulated in the same manner. Plants ranged in height from 2 to 10 cm and were in the one- to two-leaf stage for the postemergence treatments. Treated plants and untreated controls were maintained in a greenhouse for approximately 10 days, after which time all treated plants were compared to untreated controls and visually evaluated for injury. Plant response ratings, summarized in Table A, are based on a 0 to 100 scale where 0 is no effect and 100 is complete control.

[2] = system: corn (Zea mays); experiment: Test A postemergence; conditions: 0 to 100 scale, 0 no effect, 100 complete control, approx. 10 days
From the text: as §1

[3] = system: giant foxtail (Setaria faberii); experiment: Test A postemergence; conditions: 0 to 100 scale, 0 no effect, 100 complete control, approx. 10 days
From the text: as §1

[4] = system: large crabgrass (Digitaria sanguinalis); experiment: Test A postemergence; conditions: 0 to 100 scale, 0 no effect, 100 complete control, approx. 10 days
From the text: as §1

[5] = system: morningglory (Ipomoea spp.); experiment: Test A postemergence; conditions: 0 to 100 scale, 0 no effect, 100 complete control, approx. 10 days
From the text: as §1

[6] = system: pigweed (Amaranthus retroflexus); experiment: Test A postemergence; conditions: 0 to 100 scale, 0 no effect, 100 complete control, approx. 10 days
From the text: as §1

[7] = system: velvetleaf (Abutilon theophrasti); experiment: Test A postemergence; conditions: 0 to 100 scale, 0 no effect, 100 complete control, approx. 10 days
From the text: as §1

[8] = system: wheat (Triticum aestivum); experiment: Test A postemergence; conditions: 0 to 100 scale, 0 no effect, 100 complete control, approx. 10 days
From the text: as §1

[9] = system: barnyardgrass (Echinochloa crus-galli); experiment: Test A preemergence; conditions: 0 to 100 scale, 0 no effect, 100 complete control, approx. 10 days
From the text: as §1

[10] = system: corn (Zea mays); experiment: Test A preemergence; conditions: 0 to 100 scale, 0 no effect, 100 complete control, approx. 10 days
From the text: as §1

[11] = system: giant foxtail (Setaria faberii); experiment: Test A preemergence; conditions: 0 to 100 scale, 0 no effect, 100 complete control, approx. 10 days
From the text: as §1

[12] = system: large crabgrass (Digitaria sanguinalis); experiment: Test A preemergence; conditions: 0 to 100 scale, 0 no effect, 100 complete control, approx. 10 days
From the text: as §1

[13] = system: morningglory (Ipomoea spp.); experiment: Test A preemergence; conditions: 0 to 100 scale, 0 no effect, 100 complete control, approx. 10 days
From the text: as §1

[14] = system: pigweed (Amaranthus retroflexus); experiment: Test A preemergence; conditions: 0 to 100 scale, 0 no effect, 100 complete control, approx. 10 days
From the text: as §1

[15] = system: velvetleaf (Abutilon theophrasti); experiment: Test A preemergence; conditions: 0 to 100 scale, 0 no effect, 100 complete control, approx. 10 days
From the text: as §1

[16] = system: wheat (Triticum aestivum); experiment: Test A preemergence; conditions: 0 to 100 scale, 0 no effect, 100 complete control, approx. 10 days
From the text: as §1

[17] = system: barnyardgrass (Echinochloa crus-galli); experiment: Test B flooded paddy test; conditions: Flood
From the text: (§2) Plant species in the flooded paddy test consisted of rice (Oryza sativa), umbrella sedge (Cyperus difformis), ducksalad (Heteranthera limosa) and barnyardgrass (Echinochloa crus-galli) grown to the 2-leaf stage for testing. At time of treatment, test pots were flooded to 3 cm above the soil surface, treated by application of test compounds directly to the paddy water, and then maintained at that water depth for the duration of the test. Treated plants and controls were maintained in a greenhouse for 13 to 15 days, after which time all species were compared to controls and visually evaluated. Plant response ratings, summarized in Table B, are based on a scale of 0 to 100 where 0 is no effect and 100 is complete control. A dash (-) response means no test result.

[18] = system: ducksalad (Heteranthera limosa); experiment: Test B flooded paddy test; conditions: Flood, scale 0 to 100
From the text: as §2

[19] = system: rice (Oryza sativa); experiment: Test B flooded paddy test; conditions: Flood, scale 0 to 100
From the text: as §2

[20] = system: umbrella sedge (Cyperus difformis); experiment: Test B flooded paddy test; conditions: Flood, scale 0 to 100
From the text: as §2

[21] = 250 g ai/ha, scale 0 to 100 (0 no effect, 100 complete control)

COCCCn1c(-c2cc(F)cc(F)c2)c(Cl)nc(C(=O)C2=C(O)CCCC2=O)c1=O [Compound 8]
Plant response rating, Barnyardgrass ([1]; 31 g ai/ha): 0
Plant response rating, Barnyardgrass ([1]; 125 g ai/ha): 10
Plant response rating, Corn ([2]; 31 g ai/ha): 0
Plant response rating, Corn ([2]; 125 g ai/ha): 0
Plant response rating, Foxtail, Giant ([3]; 31 g ai/ha): 0
Plant response rating, Foxtail, Giant ([3]; 125 g ai/ha): 10
Plant response rating, Crabgrass, Large ([4]; 31 g ai/ha): 0
Plant response rating, Crabgrass, Large ([4]; 125 g ai/ha): 30
Plant response rating, Morningglory ([5]; 31 g ai/ha): 0
Plant response rating, Morningglory ([5]; 125 g ai/ha): 50
Plant response rating, Pigweed ([6]; 31 g ai/ha): 20
Plant response rating, Pigweed ([6]; 125 g ai/ha): 40
Plant response rating, Velvetleaf ([7]; 31 g ai/ha): 10
Plant response rating, Velvetleaf ([7]; 125 g ai/ha): 50
Plant response rating, Wheat ([8]; 31 g ai/ha): 0
Plant response rating, Wheat ([8]; 125 g ai/ha): 0
Plant response rating, Barnyardgrass ([9]; 31 g ai/ha): 0
Plant response rating, Barnyardgrass ([9]; 125 g ai/ha): 10
Plant response rating, Corn ([10]; 31 g ai/ha): 0
Plant response rating, Corn ([10]; 125 g ai/ha): 0
Plant response rating, Foxtail, Giant ([11]; 31 g ai/ha): 0
Plant response rating, Foxtail, Giant ([11]; 125 g ai/ha): 0
Plant response rating, Crabgrass, Large ([12]; 31 g ai/ha): 20
Plant response rating, Crabgrass, Large ([12]; 125 g ai/ha): 40
Plant response rating, Morningglory ([13]; 31 g ai/ha): 0
Plant response rating, Morningglory ([13]; 125 g ai/ha): 10
Plant response rating, Pigweed ([14]; 31 g ai/ha): 0
Plant response rating, Pigweed ([14]; 125 g ai/ha): 10
Plant response rating, Velvetleaf ([15]; 31 g ai/ha): 0
Plant response rating, Velvetleaf ([15]; 125 g ai/ha): 0
Plant response rating, Wheat ([16]; 31 g ai/ha): 0
Plant response rating, Wheat ([16]; 125 g ai/ha): 0
Plant response rating, Barnyardgrass ([17]; 31 g ai/ha, scale 0 to 100): 0
Plant response rating, Barnyardgrass ([17]; 62 g ai/ha, scale 0 to 100): 0
Plant response rating, Barnyardgrass ([17]; 125 g ai/ha, scale 0 to 100): 0
Plant response rating, Barnyardgrass [17, 21]: 40
Plant response rating, Ducksalad ([18]; 31 g ai/ha): 0
Plant response rating, Ducksalad ([18]; 62 g ai/ha): 0
Plant response rating, Ducksalad ([18]; 125 g ai/ha): 30
Plant response rating, Ducksalad ([18]; 250 g ai/ha): 80
Plant response rating, Rice ([19]; 31 g ai/ha): 0
Plant response rating, Rice ([19]; 62 g ai/ha): 0
Plant response rating, Rice ([19]; 125 g ai/ha): 0
Plant response rating, Rice ([19]; 250 g ai/ha): 25
Plant response rating, Sedge, Umbrella ([20]; 31 g ai/ha): 0
Plant response rating, Sedge, Umbrella ([20]; 62 g ai/ha): 40
Plant response rating, Sedge, Umbrella ([20]; 125 g ai/ha): 40
Plant response rating, Sedge, Umbrella ([20]; 250 g ai/ha): 75

O=C1CCCC(O)=C1C(=O)c1nc(Cl)c(-c2cccc(Cl)c2)n(C2CCCCC2)c1=O [Compound 3, 5-chloro-6-(3-chlorophenyl)-1-cyclohexyl-3-[(2-hydroxy-6-oxo-1-cyclohexen-1-yl)carbonyl]-2(1H)-pyrazinone]
Plant response rating, Barnyardgrass ([1]; 62 g ai/ha): 0
Plant response rating, Barnyardgrass ([1]; 250 g ai/ha): 0
Plant response rating, Corn ([2]; 62 g ai/ha): 0
Plant response rating, Corn ([2]; 250 g ai/ha): 0
Plant response rating, Foxtail, Giant ([3]; 62 g ai/ha): 0
Plant response rating, Foxtail, Giant ([3]; 250 g ai/ha): 0
Plant response rating, Crabgrass, Large ([4]; 62 g ai/ha): 0
Plant response rating, Crabgrass, Large ([4]; 250 g ai/ha): 10
Plant response rating, Morningglory ([5]; 62 g ai/ha): 0
Plant response rating, Morningglory ([5]; 250 g ai/ha): 30
Plant response rating, Pigweed ([6]; 62 g ai/ha): 0
Plant response rating, Pigweed ([6]; 250 g ai/ha): 30
Plant response rating, Velvetleaf ([7]; 62 g ai/ha): 60
Plant response rating, Velvetleaf ([7]; 250 g ai/ha): 100
Plant response rating, Wheat ([8]; 62 g ai/ha): 0
Plant response rating, Wheat ([8]; 250 g ai/ha): 0
Plant response rating, Barnyardgrass ([9]; 62 g ai/ha): 0
Plant response rating, Barnyardgrass ([9]; 250 g ai/ha): 20
Plant response rating, Corn ([10]; 62 g ai/ha): 0
Plant response rating, Corn ([10]; 250 g ai/ha): 0
Plant response rating, Foxtail, Giant ([11]; 62 g ai/ha): 0
Plant response rating, Foxtail, Giant ([11]; 250 g ai/ha): 0
Plant response rating, Crabgrass, Large ([12]; 62 g ai/ha): 0
Plant response rating, Crabgrass, Large ([12]; 250 g ai/ha): 30
Plant response rating, Morningglory ([13]; 62 g ai/ha): 0
Plant response rating, Morningglory ([13]; 250 g ai/ha): 10
Plant response rating, Pigweed ([14]; 62 g ai/ha): 0
Plant response rating, Pigweed ([14]; 250 g ai/ha): 60
Plant response rating, Velvetleaf ([15]; 62 g ai/ha): 40
Plant response rating, Velvetleaf ([15]; 250 g ai/ha): 80
Plant response rating, Wheat ([16]; 62 g ai/ha): 0
Plant response rating, Wheat ([16]; 250 g ai/ha): 0
Plant response rating, Barnyardgrass ([17]; 31 g ai/ha, scale 0 to 100): 0
Plant response rating, Barnyardgrass ([17]; 62 g ai/ha, scale 0 to 100): 0
Plant response rating, Barnyardgrass ([17]; 125 g ai/ha, scale 0 to 100): 0
Plant response rating, Barnyardgrass [17, 21]: 0
Plant response rating, Ducksalad ([18]; 31 g ai/ha): 0
Plant response rating, Ducksalad ([18]; 62 g ai/ha): 20
Plant response rating, Ducksalad ([18]; 125 g ai/ha): 80
Plant response rating, Ducksalad ([18]; 250 g ai/ha): 80
Plant response rating, Rice ([19]; 31 g ai/ha): 0
Plant response rating, Rice ([19]; 62 g ai/ha): 0
Plant response rating, Rice ([19]; 125 g ai/ha): 0
Plant response rating, Rice ([19]; 250 g ai/ha): 0
Plant response rating, Sedge, Umbrella ([20]; 31 g ai/ha): 0
Plant response rating, Sedge, Umbrella ([20]; 62 g ai/ha): 0
Plant response rating, Sedge, Umbrella ([20]; 125 g ai/ha): 30
Plant response rating, Sedge, Umbrella ([20]; 250 g ai/ha): 60
